# According to article PMC2014795 (PLoS Pathogens, 2007):
# Target: T1, HLA-DR1 (DRB1*0101) (Homo sapiens, UniProt P01903+P01911, A100R/D57E/F55L/F60I/F76Y/I96L/L162R/M171V/P40L/Q125E/R42F/V115G/Y59C)
# T1 construct: the extracellular portion of HLA-DR1 was produced by expression of isolated subunits in Escherichia coli inclusion bodies; made in house
# Experiment: biochemical
# Type: binding
row,Structure (SMILES),IC50
1,CC[C@H](C)[C@H](NC(=O)CNC(=O)[C@@H](NC(=O)[C@@H]1CCCN1C(=O)[C@@H](NC(=O)CNC(=O)CNC(=O)CNC(=O)[C@@H](N)CC(C)C)[C@@H](C)O)[C@@H](C)CC)C(=O)N[C@H](C(=O)N[C@@H](CO)C(=O)N[C@@H](C)C(=O)N[C@@H](CCC(N)=O)C(=O)N[C@H](C(=O)N[C@@H](CC(C)C)C(=O)N[C@@H](CO)C(=O)N[C@@H](CCC(=O)O)C(=O)N[C@@H](CCCCN)C(=O)N[C@@H](Cc1ccccc1)C(=O)N[C@H](C(=O)N[C@@H](CCC(N)=O)C(=O)O)[C@@H](C)O)C(C)C)[C@@H](C)CC [Peptide 326],29 ± 8 nM
2,CC[C@H](C)[C@H](NC(=O)[C@H](C)NC(=O)[C@H](CC(C)C)NC(=O)[C@H](CO)NC(=O)[C@H](CC(N)=O)NC(=O)[C@H](CC(C)C)NC(=O)[C@H](Cc1ccccc1)NC(=O)[C@H](CCCNC(=N)N)NC(=O)[C@H](CCSC)NC(=O)[C@H](CC(=O)O)NC(=O)[C@H](Cc1ccccc1)NC(=O)[C@H](CCC(N)=O)NC(=O)CNC(=O)[C@@H](NC(=O)[C@@H](N)Cc1ccc(O)cc1)[C@@H](C)CC)C(=O)N[C@@H](Cc1c[nH]cn1)C(=O)N[C@@H](CCC(=O)O)C(=O)N[C@@H](CCCCN)C(=O)N[C@@H](Cc1ccccc1)C(=O)N[C@@H](CC(=O)O)C(=O)N[C@@H](C)C(=O)O [Peptide 314],4 ± 1 nM
3,CC[C@H](C)[C@H](NC(=O)[C@@H](NC(=O)[C@@H]1CCCN1C(=O)[C@H](CCC(=O)O)NC(=O)[C@H](CO)NC(=O)[C@H](CO)NC(=O)[C@H](CCSC)NC(=O)[C@H](Cc1ccc(O)cc1)NC(=O)[C@H](CCCNC(=N)N)NC(=O)[C@H](Cc1ccccc1)NC(=O)[C@@H](NC(=O)[C@@H](NC(=O)[C@H](CC(N)=O)NC(=O)[C@H](C)NC(=O)[C@@H](NC(=O)[C@@H](N)CCC(N)=O)[C@@H](C)O)C(C)C)C(C)C)[C@@H](C)CC)C(=O)N[C@@H](Cc1ccccc1)C(=O)NCC(=O)N[C@@H](CCC(=O)O)C(=O)N[C@@H](CO)C(=O)N[C@@H](CO)C(=O)O [Peptide 302],37 ± 10 nM
4,CC[C@H](C)[C@H](NC(=O)[C@H](CCCNC(=N)N)NC(=O)[C@H](CC(=O)O)NC(=O)[C@@H](NC(=O)[C@H](CCCCN)NC(=O)[C@@H](NC(=O)[C@H](CO)NC(=O)[C@H](CCC(=O)O)NC(=O)[C@@H](NC(=O)[C@H](Cc1ccc(O)cc1)NC(=O)[C@H](CCSC)NC(=O)[C@H](Cc1ccccc1)NC(=O)[C@H](CO)NC(=O)[C@H](Cc1ccccc1)NC(=O)[C@H](CCCCN)NC(=O)[C@H](Cc1ccccc1)NC(=O)[C@H](Cc1ccccc1)NC(=O)[C@@H](N)CC(=O)O)[C@@H](C)CC)[C@@H](C)CC)C(C)C)C(=O)NCC(=O)N[C@@H](CC(=O)O)C(=O)N[C@@H](CC(N)=O)C(=O)O [Peptide 328],140 ± 20 nM
5,CC[C@H](C)[C@H](NC(=O)[C@H](Cc1ccccc1)NC(=O)[C@H](CC(C)C)NC(=O)[C@H](CC(C)C)NC(=O)[C@H](CS)NC(=O)[C@@H](NC(=O)[C@H](C)NC(=O)[C@H](C)NC(=O)[C@@H](NC(=O)[C@H](C)N)[C@@H](C)O)C(C)C)C(=O)N[C@@H](CCC(N)=O)C(=O)NCC(=O)N[C@@H](Cc1ccc(O)cc1)C(=O)N[C@@H](CO)C(=O)N[C@H](C(=O)N[C@@H](Cc1ccc(O)cc1)C(=O)N[C@@H](CCC(=O)O)C(=O)N[C@@H](CC(N)=O)C(=O)N[C@@H](Cc1ccc(O)cc1)C(=O)NCC(=O)N[C@@H](CC(N)=O)C(=O)O)[C@@H](C)CC [Peptide 336],280 ± 40 nM
6,CC[C@H](C)[C@H](NC(=O)[C@H](CCC(=O)O)NC(=O)[C@H](CC(=O)O)NC(=O)[C@@H](NC(=O)[C@H](CC(=O)O)NC(=O)[C@H](CC(C)C)NC(=O)[C@@H](NC(=O)[C@H](CCCCN)NC(=O)CNC(=O)[C@H](Cc1c[nH]cn1)NC(=O)[C@@H](NC(=O)[C@@H](NC(=O)[C@H](Cc1ccc(O)cc1)NC(=O)[C@H](CCSC)NC(=O)[C@H](CC(=O)O)NC(=O)[C@H](Cc1ccc(O)cc1)NC(=O)[C@@H]1CCCN1C(=O)[C@H](CC(C)C)NC(=O)[C@H](CCCNC(=N)N)NC(=O)[C@@H](N)CCCCN)[C@@H](C)CC)[C@@H](C)CC)C(C)C)[C@@H](C)CC)C(=O)N[C@@H](CC(C)C)C(=O)O [Peptide 339],210 ± 45 nM
7,CC[C@H](C)[C@H](NC(=O)[C@H](CC(N)=O)NC(=O)[C@H](Cc1ccccc1)NC(=O)[C@H](CC(C)C)NC(=O)[C@H](CCCCN)NC(=O)[C@H](CC(N)=O)NC(=O)CNC(=O)[C@H](CC(=O)O)NC(=O)[C@H](CC(C)C)NC(=O)[C@@H]1CCCN1C(=O)[C@@H](NC(=O)[C@@H](NC(=O)[C@H](CCCCN)NC(=O)[C@@H](NC(=O)[C@H](CCCCN)NC(=O)[C@H](CS)NC(=O)[C@H](CO)NC(=O)[C@@H](N)Cc1c[nH]cn1)C(C)C)[C@@H](C)CC)C(C)C)C(=O)N[C@@H](C)C(=O)N[C@@H](CCC(N)=O)C(=O)N[C@@H](CCCNC(=N)N)C(=O)O [Peptide 329],5 ± 1 nM
8,CC(C)C[C@H](NC(=O)[C@H](Cc1ccc(O)cc1)NC(=O)[C@H](CCCNC(=N)N)NC(=O)CNC(=O)[C@H](CCC(=O)O)NC(=O)[C@H](CCCCN)NC(=O)[C@@H](NC(=O)[C@@H](N)CC(N)=O)[C@@H](C)O)C(=O)N[C@H](C(=O)N[C@@H](CC(C)C)C(=O)N[C@@H](CCCCN)C(=O)N[C@@H](C)C(=O)N[C@H](C(=O)N[C@@H](CCCCN)C(=O)N[C@H](C(=O)N[C@@H](CS)C(=O)N[C@@H](CC(=O)O)C(=O)N[C@H](C(=O)N[C@@H](CCCNC(=N)N)C(=O)N[C@H](C(=O)N[C@H](C(=O)O)C(C)C)[C@@H](C)O)C(C)C)C(C)C)C(C)C)C(C)C [Peptide 301],190 ± 16 nM
9,CC[C@H](C)[C@H](NC(=O)[C@@H](NC(=O)[C@H](CC(C)C)NC(=O)[C@H](C)NC(=O)[C@@H](NC(=O)[C@H](CC(C)C)NC(=O)[C@H](C)NC(=O)[C@H](CC(C)C)NC(=O)[C@H](CC(C)C)NC(=O)[C@H](CCSC)NC(=O)[C@H](CCC(N)=O)NC(=O)[C@H](Cc1ccc(O)cc1)NC(=O)[C@H](CC(N)=O)NC(=O)[C@H](CCCNC(=N)N)NC(=O)[C@H](CO)NC(=O)[C@@H](NC(=O)[C@H](CC(C)C)NC(=O)[C@@H](N)CCCNC(=N)N)C(C)C)C(C)C)C(C)C)C(=O)N[C@H](C(=O)N[C@@H](CC(C)C)C(=O)N[C@H](C(=O)O)[C@@H](C)O)[C@@H](C)O [Peptide 310],660 ± 25 nM
10,CC[C@H](C)[C@H](NC(=O)[C@H](CO)NC(=O)[C@H](C)NC(=O)[C@H](CC(=O)O)NC(=O)[C@H](CC(C)C)NC(=O)[C@H](CC(C)C)NC(=O)[C@H](CO)NC(=O)[C@H](C)NC(=O)[C@@H](NC(=O)[C@H](CO)NC(=O)[C@@H](NC(=O)[C@@H](NC(=O)[C@@H](NC(=O)[C@@H](NC(=O)[C@@H](NC(=O)[C@H](CCCCN)NC(=O)[C@@H](N)CCSC)C(C)C)C(C)C)[C@@H](C)CC)C(C)C)[C@@H](C)O)C(C)C)C(=O)N[C@@H](CCC(N)=O)C(=O)N[C@@H](Cc1ccccc1)C(=O)N[C@@H](CCC(N)=O)C(=O)N[C@@H](CCCCN)C(=O)O [Peptide 332],380 ± 28 nM
11,CC[C@H](C)[C@H](N)C(=O)N[C@@H](Cc1ccccc1)C(=O)N[C@@H](CCCCN)C(=O)N[C@@H](CC(N)=O)C(=O)N[C@@H](CC(N)=O)C(=O)N[C@@H](CC(=O)O)C(=O)N[C@H](C(=O)N[C@@H](CCCNC(=N)N)C(=O)N[C@H](C(=O)N[C@@H](CC(C)C)C(=O)N[C@@H](CC(C)C)C(=O)NCC(=O)N[C@@H](CC(C)C)C(=O)N[C@H](C(=O)N[C@@H](CC(C)C)C(=O)N[C@@H](Cc1ccccc1)C(=O)N[C@H](C(=O)N[C@@H](CC(C)C)C(=O)N[C@@H](C)C(=O)N[C@@H](CC(C)C)C(=O)N[C@@H](Cc1ccc(O)cc1)C(=O)O)C(C)C)[C@@H](C)CC)[C@@H](C)O)C(C)C [Peptide 322],1270 nM
12,CC[C@H](C)[C@H](N)C(=O)N[C@@H](CC(C)C)C(=O)N[C@@H](CCCCN)C(=O)N[C@@H](CO)C(=O)N[C@@H](CC(C)C)C(=O)NCC(=O)N[C@@H](Cc1ccccc1)C(=O)N[C@@H](CCCCN)C(=O)N[C@H](C(=O)N[C@@H](CC(C)C)C(=O)N[C@@H](CC(=O)O)C(=O)NCC(=O)N[C@@H](CO)C(=O)N1CCC[C@H]1C(=O)N[C@H](C(=O)N[C@@H](CO)C(=O)N[C@@H](CC(C)C)C(=O)N[C@@H](CCCNC(=N)N)C(=O)N[C@@H](Cc1ccc(O)cc1)C(=O)NCC(=O)N[C@@H](CO)C(=O)O)[C@@H](C)CC)C(C)C [Peptide 306],5 ± 1 nM
13,CC[C@H](C)[C@H](NC(=O)[C@H](CO)NC(=O)[C@H](CC(N)=O)NC(=O)[C@H](Cc1ccccc1)NC(=O)[C@@H](NC(=O)[C@H](CC(C)C)NC(=O)[C@H](CCC(N)=O)NC(=O)[C@H](CC(=O)O)NC(=O)[C@H](CCC(=O)O)NC(=O)[C@@H](N)Cc1ccccc1)C(C)C)C(=O)N[C@@H](CO)C(=O)N[C@@H](C)C(=O)N[C@@H](CCCNC(=N)N)C(=O)N[C@@H](C)C(=O)N[C@@H](CC(C)C)C(=O)N[C@@H](CCCCN)C(=O)N[C@@H](C)C(=O)N[C@@H](Cc1ccc(O)cc1)C(=O)N[C@@H](Cc1ccccc1)C(=O)N[C@H](C(=O)N[C@@H](C)C(=O)O)[C@@H](C)O [Peptide 345],8 ± 0.3 nM
14,CC[C@H](C)[C@H](NC(=O)[C@H](CCSC)NC(=O)[C@@H](N)Cc1ccc(O)cc1)C(=O)N[C@H](C(=O)N[C@H](C(=O)NCC(=O)N[C@H](C(=O)N[C@H](C(=O)N[C@H](C(=O)N[C@@H](CC(C)C)C(=O)N[C@@H](C)C(=O)N[C@@H](C)C(=O)N[C@@H](CC(C)C)C(=O)N[C@@H](Cc1ccccc1)C(=O)N[C@@H](CCSC)C(=O)N[C@@H](Cc1ccc(O)cc1)C(=O)N[C@@H](Cc1ccc(O)cc1)C(=O)N[C@@H](C)C(=O)N[C@@H](CCCCN)C(=O)N[C@@H](CCCNC(=N)N)C(=O)N[C@@H](CCSC)C(=O)O)[C@@H](C)CC)[C@@H](C)CC)C(C)C)[C@@H](C)CC)C(C)C [Peptide 317],675 ± 185 nM
15,CC[C@H](C)[C@H](NC(=O)[C@H](Cc1ccccc1)NC(=O)[C@H](CC(C)C)NC(=O)[C@H](CC(C)C)NC(=O)[C@H](CS)NC(=O)[C@@H](NC(=O)[C@H](C)NC(=O)[C@H](C)NC(=O)[C@@H](NC(=O)[C@H](C)NC(=O)[C@@H](NC(=O)[C@@H](NC(=O)[C@@H](NC(=O)[C@H](Cc1ccccc1)NC(=O)[C@H](Cc1ccccc1)NC(=O)[C@@H](NC(=O)[C@H](CO)NC(=O)[C@H](CC(C)C)NC(=O)[C@H](CO)NC(=O)[C@H](CC(N)=O)NC(=O)[C@@H](N)CCSC)[C@@H](C)CC)[C@@H](C)CC)C(C)C)C(C)C)[C@@H](C)O)C(C)C)C(=O)O [Peptide 325],580 ± 50 nM
